Target: T1, PD-1/PD-L1 (Homo sapiens, UniProt Q9NZQ7)
T1 construct: made in house; host or cells: HEK293T
Experiment: PD-1/PD-L1 Homogenous Time-Resolved Fluorescence (HTRF) binding assay
Conditions: PD-L1-His 10 nM, PD-1-Ig 20 nM; value given as range class; read-out: Range or IC50
Method: The ability of the compounds of formula (I) to bind to PD-L1 was investigated using a PD-1/PD-L1 Homogenous Time-Resolved Fluorescence (HTRF) binding assay.
Homogenous Time-Resolved Fluorescence (HTRF) Binding Assay.
All binding studies were performed in an HTRF assay buffer consisting of dPBS supplemented with 0.1% […] bovine serum albumin and 0.05% (v/v) Tween-20. […] HTRF detection was achieved using europium crypate-labeled anti-Ig (1 nM final) and allophycocyanin (APC) labeled anti-His (20 nM final). Antibodies were diluted in HTRF detection buffer and 5 μl was dispensed on top of the binding reaction. […] Additional binding assays were established between the human proteins PD-1-Ig/PD-L2-His (20 & 5 nM, respectively) and CD80-His/PD-L1-Ig (100 & 10 nM, respectively). […]

T1 sequence (Q9NZQ7 with tags, fused parts or gaps): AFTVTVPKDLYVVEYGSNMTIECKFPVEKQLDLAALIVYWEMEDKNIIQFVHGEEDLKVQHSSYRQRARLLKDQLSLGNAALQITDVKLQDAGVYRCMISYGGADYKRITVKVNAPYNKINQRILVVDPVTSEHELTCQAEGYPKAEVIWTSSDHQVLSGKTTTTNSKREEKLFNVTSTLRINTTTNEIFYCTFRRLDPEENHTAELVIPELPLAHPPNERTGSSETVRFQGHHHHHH

Row | Structure (SMILES) | IC50 [nM]
1 | Cc1c(COc2cc(OCc3cncc(C#N)c3)c(CN3CC[C@H](O)C3)cc2Cl)cccc1-c1ccc2c(c1)OC(CCN1CC[C@H](O)C1)CO2 (mixture of isomers) [Example 1501, 5-((4-chloro-5-((3-(3-(2-((S)-3-hydroxypyrrolidin-1-yl)ethyl)-2,3-dihydrobenzo[b][1,4]dioxin-6-yl)-2-methylbenzyl)oxy)-2-(((S)-3-hydroxypyrrolidin-1-yl)methyl)phenoxy)methyl)nicotinonitrile] | 0.21 to 10
2 | Cc1c(COc2cc(OCc3cncc(C#N)c3)c(C=O)cc2Cl)cccc1-c1ccc2c(c1)OC(CCN1CC[C@H](O)C1)CO2 (mixture of isomers) [Example 1502, 5-((4-chloro-2-formyl-5-((3-(3-(2-((S)-3-hydroxypyrrolidin-1-yl)ethyl)-2,3-dihydrobenzo[b][1,4]dioxin-6-yl)-2-methylbenzyl)oxy)phenoxy)methyl)nicotinonitrile] | 10 to 100
3 | Cc1c(COc2cc(OCc3cncc(C#N)c3)c(CN3CCCC[C@H]3C(=O)O)cc2Cl)cccc1-c1cccc(OCCCN2CCC(O)(CC(=O)O)C2)c1C (mixture of isomers) [Example 1519, (2S)-1-(4-((3′-(3-(3-(carboxymethyl)-3-hydroxypyrrolidin-1-yl)propoxy)-2,2′-dimethyl-[1,1′-biphenyl]-3-yl)methoxy)-5-chloro-2-((5-cyanopyridin-3-yl)methoxy)benzyl)piperidine-2-carboxylic acid] | 0.21 to 10
4 | Cc1c(COc2cc(OCc3cncc(C#N)c3)c(CNC(C)(CO)C(=O)O)cc2Cl)cccc1-c1cccc(OCc2cncc(C#N)c2)c1 (racemic) [Example 3018, 2-((5-chloro-2-((5-cyanopyridin-3-yl)methoxy)-4-((3′-((5-cyanopyridin-3-yl)methoxy)-2-methyl-[1,1′-biphenyl]-3-yl)methoxy)benzyl)amino)-3-hydroxy-2-methylpropanoic Acid] | 0.21 to 10
5 | Cc1c(COc2cc(OCc3cncc(S(C)(=O)=O)c3)c(CN3CCCC[C@H]3C(=O)O)cc2Cl)cccc1-c1cccc(OCCCN2CCC(CO)(C(=O)O)C2)c1Cl (single isomer, unassigned) [Example 1062] | 0.21 to 10
6 | Cc1c(COc2cc(OCc3cncc(S(C)(=O)=O)c3)c(CNC(C)(CO)C(=O)O)cc2Cl)cccc1-c1cccc(OCCCN2CCC(CO)(C(=O)O)C2)c1Cl (single isomer, unassigned) [Example 1063] | 0.21 to 10
7 | Cc1c(COc2cc(OCc3cncc(S(C)(=O)=O)c3)c(CNC(C)(CO)C(=O)O)cc2Cl)cccc1-c1cccc(OCCCN2CCC(CO)(C(=O)O)C2)c1Cl (single isomer, unassigned) [Example 1064] | 0.21 to 10
8 | Cc1c(COc2cc(OCc3cncc(C#N)c3)c(CN3CCCC[C@H]3C(=O)O)cc2Cl)cccc1-c1cccc(OCCCN2CCC(CO)(C(=O)O)C2)c1C (single isomer, unassigned) [Example 1066] | 0.21 to 10
9 | Cc1c(COc2cc(OCc3cncc(C#N)c3)c(CNC(C)(CO)C(=O)O)cc2Cl)cccc1-c1cccc(OCCCN2CCC(CO)(C(=O)O)C2)c1C (single isomer, unassigned) [Example 1067] | 0.21 to 10

The remaining lines, values ahead:

Row | IC50 [nM] | Structure (SMILES)
10 | 10 to 100 | Cc1c(COc2cc(OCc3cncc(C#N)c3)c(CN3CCCC[C@H]3C(=O)O)cc2Cl)cccc1-c1ccc2c(c1)OC(CCN1CC[C@H](O)C1)CO2 (mixture of isomers) [Example 1503, (2S)-1-(5-chloro-2-((5-cyanopyridin-3-yl)methoxy)-4-((3-(3-(2-((S)-3-hydroxypyrrolidin-1-yl)ethyl)-2,3-dihydrobenzo[b][1,4]dioxin-6-yl)-2-methylbenzyl)oxy)benzyl)piperidine-2-carboxylic acid]
11 | 0.21 to 10 | Cc1c(COc2cc(OCc3cncc(C#N)c3)c(CN3CCCC[C@H]3C(=O)O)cc2Cl)cccc1-c1ccc2c(c1)OC(CCN1CC[C@@H](O)C1)CO2 (mixture of isomers) [Example 1504, (2S)-1-(5-chloro-2-((5-cyanopyridin-3-yl)methoxy)-4-((3-(3-(2-((R)-3-hydroxypyrrolidin-1-yl)ethyl)-2,3-dihydrobenzo[b][1,4]dioxin-6-yl)-2-methylbenzyl)oxy)benzyl)piperidine-2-carboxylic acid]
12 | 0.21 to 10 | Cc1c(COc2cc(OCc3cncc(S(C)(=O)=O)c3)c(CN3CCCC[C@H]3C(=O)O)cc2Cl)cccc1-c1ccc2c(c1)OC(CCN1CC[C@@H](O)C1)CO2 (mixture of isomers) [Example 1507, (2S)-1-(5-chloro-4-((3-(3-(2-((R)-3-hydroxypyrrolidin-1-yl)ethyl)-2,3-dihydrobenzo[b][1,4]dioxin-6-yl)-2-methylbenzyl)oxy)-2-((5-(methylsulfonyl)pyridin-3-yl)methoxy)benzyl)piperidine-2-carboxylic acid]
13 | 0.21 to 10 | Cc1c(COc2cc(OCc3cncc(S(C)(=O)=O)c3)c(CN3CCCC[C@H]3C(=O)O)cc2Cl)cccc1-c1ccc2c(c1)OC(CCN1CCC(O)(CC(=O)O)C1)CO2 (mixture of isomers) [Example 1508, (2S)-1-(4-((3-(3-(2-(3-(carboxymethyl)-3-hydroxypyrrolidin-1-yl)ethyl)-2,3-dihydrobenzo[b][1,4]dioxin-6-yl)-2-methylbenzyl)oxy)-5-chloro-2-((5-(methylsulfonyl)pyridin-3-yl)methoxy)benzyl)piperidine-2-carboxylic acid]
14 | 0.21 to 10 | Cc1c(COc2cc(OCc3cncc(S(C)(=O)=O)c3)c(CN3CCCC[C@H]3C(=O)O)cc2Cl)cccc1-c1cccc(OCCCN2CCC(O)(CC(=O)O)C2)c1C (mixture of isomers) [Example 1516, (2S)-1-(4-((3′-(3-(3-(carboxymethyl)-3-hydroxypyrrolidin-1-yl)propoxy)-2,2′-dimethyl-[1,1′-biphenyl]-3-yl)methoxy)-5-chloro-2-((5-(methylsulfonyl)pyridin-3-yl)methoxy)benzyl)piperidine-2-carboxylic acid]
15 | 10 to 100 | CCOC(=O)CC1(O)CCN(CCC2COc3ccc(-c4cccc(COc5cc(OCc6cncc(S(C)(=O)=O)c6)c(CN6CCCC[C@H]6C(=O)OC)cc5Cl)c4C)cc3O2)C1 (mixture of isomers) [Example 1527, (2S)-methyl 1-(5-chloro-4-((3-(3-(2-(3-(2-ethoxy-2-oxoethyl)-3-hydroxypyrrolidin-1-yl)ethyl)-2,3-dihydrobenzo[b][1,4]dioxin-6-yl)-2-methylbenzyl)oxy)-2-((5-(methylsulfonyl)pyridin-3-yl)methoxy)benzyl)piperidine-2-carboxylate]
16 | 0.21 to 10 | Cc1c(COc2cc(OCc3cncc(S(C)(=O)=O)c3)c(CN3CCCC[C@H]3C(=O)O)cc2Cl)cccc1-c1cccc(OCCCN2CCC(CO)(C(=O)O)C2)c1Cl (single isomer, unassigned) [Example 1065]
17 | 0.21 to 10 | Cc1c(COc2cc(OCc3cncc(C#N)c3)c(CN3CCCC[C@H]3C(=O)O)cc2Cl)cccc1-c1ccc2c(c1)OC(CCN1CC[C@@H](O)C1)CO2 (single isomer, unassigned) [Example 1505]
18 | 0.21 to 10 | Cc1c(COc2cc(OCc3cncc(C#N)c3)c(CN3CCCC[C@H]3C(=O)O)cc2Cl)cccc1-c1ccc2c(c1)OC(CCN1CC[C@@H](O)C1)CO2 (single isomer, unassigned) [Example 1506]

Reference: patent publication US10745382B2 (BRISTOL-MYERS SQUIBB COMPANY, priority 2015, dated 2020)
